Reference: patent US12122787B2, “Fused pyridone compound, and preparation method therefor and use thereof” (SHANGHAI JEMINCARE PHARMACEUTICALS CO., LTD, priority 2019, dated 2024)
Like-named read-outs stand apart in the source and are kept apart here.

Key:
Assay type in all cases: cell-based
[1] = test system: phosphorylated ERK (Thr202/Tyr204) in NCI-H358 cells expressing mutant RAS(G12C); assay: Inhibition of RAS-mediated signal transduction: phosphorylated ERK ELISA in NCI-H358 cells; details: NCI-H358 cells, 2 hours of treatment, pERK normalized by Janus Green B, read-out: p-ERK IC50 (NCI H358)
Protocol: The cells were treated with or without the compound of the present disclosure (dimethyl sulfoxide, DMSO), and the final concentration of DMSO was guaranteed to be 0.5%. After 2 hours of treatment, the medium was removed and 4% paraformaldehyde (Beyotime catalog number E672002-0100) was added and left to stand for 20 minutes. Cells were washed with PBS after fixation and incubated with precooled methanol for 10 min to permeabilize the cell membrane.
The level of phosphorylated ERK was detected using an enzyme linked immunosorbent assay (ELISA) method. […] The plates were washed 5 times with PBS containing 0.05% Tween 20. […] The reaction was stopped by adding 1 mol/L H2SO4, and the OD value was read at 450 nm by EnVision (PerkinElmer).
The total number of cells per well was detected by Janus Green B staining method. After detecting the level of phosphorylated ERK, the 96-well plate was washed with PBS until colorless, and 0.1% Janus Green B (Abcam catalogue number ab111622) was added to incubate for 10 minutes. After the 96-well plate was washed with double distilled water, 0.1 mol/L HCl was added, then the mixture was shaked and incubated for 10 minutes. The OD value was read at 595 nm by EnVision (PerkinElmer).
The signal of pERK (Thr202/Tyr204) was normalized by the signal value of Janus Green B, and the inhibition percentage after drug treatment relative to DMSO reference was calculated. The percentage values were fitted by a four-parameter dose-response curve and generated IC50 values.

[2] = test system: NCI-H358 cells expressing KRAS-G12C; assay: Growth inhibition of tumor cell line expressing KRAS-G12C (Cell Titer Glo), NCI-H358
Protocol: (§1) The ability of the compounds of the present disclosure to inhibit the growth of cells expressing KRAS-G12C was evaluated by measuring the cell viability and calculating the GI50 values.
(§2) The tumor cell line NCI-H358 (ATCC catalogue number CRL-5807) expressing KRAS-G12C was cultured in RPMI medium supplemented with 10% fetal bovine serum and penicillin/streptomycin, and the tumor cell line MIA PaCa2 (ATCC CRL-1420) expressing KRAS-G12C was cultured in DMEM medium supplemented with 10% fetal bovine serum, 2.5% horse serum, and penicillin/streptomycin.
(§3) Cells NCI-H358 and MIA-Paca2 were inoculated into black transparent bottom 384-well plate (PerkinElmer catalogue number 6007460) with cell density of 1000 and 800 respectively, and the cells were allowed to adhere to the wall overnight (8-12 hours). After the cells adhered to the wall, the experimental group was added with the compound of the present disclosure diluted 5 times the concentration of the working solution (final concentration containing 0.1% dimethyl sulfoxide, i.e. DMSO); the control group was added with the same dilution as the experimental group (final concentration containing 0.1% DMSO). After 72 hours, Cell Titer Glo reagent (Promega catalogue number G7572) was used to detect ATP content according to the instruction method to determine the amount of cell proliferation. The brief operation steps were as follows: the cell plate was taken out and kept at normal temperature for equilibrium for 30 minutes; Cell Titer Glo reagent with the same volume as the culture was added; the culture plate was placed on a shaker for shaking and cracking for 2 minutes; the culture plate was left to stand at room temperature for 10 minutes; then the light signal value was read by microplate reader EnVision (PerkinElmer).
(§4) Data from all experimental groups were used to calculate the respective percent inhibition using the DMSO group, and the GI50 was calculated using the data processing software GraphPad to analyze the inhibition rates produced by the 9 compound dose concentrations diluted at ⅓-fold ratio.

[3] = test system: MIA PaCa2 cells expressing KRAS-G12C; assay: Growth inhibition of tumor cell line expressing KRAS-G12C (Cell Titer Glo), MIA PaCa2; details: MIA-Paca2, 72 hours
Protocol: as §1, §2, §3, §4

Molecule `C=CC(=O)N1C[C@@H]2C(=O)N(C)c3c(c4cc(Cl)c(-c5c(O)cccc5F)nc4n(-c4c(C)ccnc4C(C)C)c3=O)N2C[C@H]1C` [Compound 25A] has an IC50 ([1]; Homo sapiens, NCI-H358, 2 h) of 14 nM, a GI50 ([2]; Homo sapiens, NCI-H358, 72 h) of 10 nM and a GI50 ([3]; Homo sapiens, MIA PaCa-2, 72 h) of 29 nM.
In the case of `C=CC(=O)N1C[C@@H]2C(=O)N(CCCO)c3c(c4cc(F)c(-c5c(O)cccc5F)c(F)c4n(-c4c(C)ccnc4C(C)C)c3=O)N2C[C@H]1C` [Compound 41A], the IC50 ([1]; Homo sapiens, NCI-H358, 2 h) is reported as 942 nM, the GI50 ([2]; Homo sapiens, NCI-H358, 72 h) is reported as 530 nM and the GI50 ([3]; Homo sapiens, MIA PaCa-2, 72 h) is reported as 2240 nM.
In the case of `C=CC(=O)N1C[C@@H]2C(=O)N(C)c3c(c4cc(Cl)c(-c5c(F)cccc5OC)c(F)c4n(-c4c(C)ccnc4C(C)C)c3=O)N2C[C@H]1C` [Compound 42A], the IC50 ([1]; Homo sapiens, NCI-H358, 2 h) is reported as 9 nM, the GI50 ([2]; Homo sapiens, NCI-H358, 72 h) is reported as 9 nM and the GI50 ([3]; Homo sapiens, MIA PaCa-2, 72 h) is reported as 228 nM.
Molecule `C=CC(=O)N1CC2C(=O)Nc3c(c4cc(F)c(-c5c(O)cccc5F)c(F)c4n(-c4c(C)ccnc4C(C)C)c3=O)N2CC1C` (single isomer, unassigned) [Compound 22A-2] has an IC50 [1] of 54 nM, a GI50 ([2]; NCI-H358, 72 hours) of 42 nM and a GI50 [3] of 119 nM.
For `C=CC(=O)N1C[C@@H]2C(=O)N(C)c3c(c4cc(Cl)c(-c5c(O)cccc5F)c(F)c4n(-c4c(C)ccnc4C(C)C)c3=O)N2C[C@H]1C` [Compound 23A-1], the IC50 ([1]; Homo sapiens, NCI-H358, 2 h) was 111 nM, the GI50 ([2]; Homo sapiens, NCI-H358, 72 h) was 104 nM and the GI50 ([3]; Homo sapiens, MIA PaCa-2, 72 h) was 281 nM.
`C=CC(=O)N1C[C@@H]2C(=O)N(CCN(C)C)c3c(c4cc(Cl)c(-c5c(F)cccc5OC)c(F)c4n(-c4c(C)ccnc4C(C)C)c3=O)N2C[C@H]1C` (atropisomer, axis not shown) [Compound 27A] showed an IC50 ([1]; Homo sapiens, NCI-H358, 2 h) of 87 nM, a GI50 ([2]; Homo sapiens, NCI-H358, 72 h) of 147 nM and a GI50 ([3]; Homo sapiens, MIA PaCa-2, 72 h) of 152 nM.
With `C=CC(=O)N1C[C@@H]2C(=O)N(C)c3c(c4cc(F)c(-c5c(C)ccc6[nH]ncc56)c(F)c4n(-c4c(C)ccnc4C(C)C)c3=O)N2C[C@H]1C` [Compound 32A] the IC50 ([1]; Homo sapiens, NCI-H358, 2 h) was 274 nM, the GI50 ([2]; Homo sapiens, NCI-H358, 72 h) was 442 nM and the GI50 ([3]; Homo sapiens, MIA PaCa-2, 72 h) was 604 nM.
In the case of `C=CC(=O)N1CC2C(=O)N(CCN(C)C)c3c(c4cc(F)c(-c5c(O)cccc5F)c(F)c4n(-c4c(C)ccnc4C(C)C)c3=O)N2CC1C` (stereo not drawn) [Compound 24C], the IC50 [1] is reported as 12 nM, the GI50 ([2]; NCI-H358, 72 hours) is reported as 11 nM and the GI50 [3] is reported as 23 nM.
For `C=CC(=O)N1C[C@@H]2CN(CCCO)c3c(c4cc(F)c(-c5c(O)cccc5F)c(F)c4n(-c4c(C)ccnc4C(C)C)c3=O)N2C[C@H]1C` (atropisomer, axis not shown) [Compound 35A-1], the IC50 [1] was 313 nM, the GI50 ([2]; NCI-H358, 72 hours) was 163 nM and the GI50 [3] was 2600 nM.
`C=CC(=O)N1C[C@@H]2C(=O)N(C)c3c(c4cc(Cl)c(-c5c(O)cccc5F)c(F)c4n(-c4c(C)ncnc4C(C)C)c3=O)N2C[C@H]1C` (atropisomer, axis not shown) [Compound 49A-1] gave an IC50 [1] of 5 nM, a GI50 ([2]; NCI-H358, 72 hours) of 3 nM and a GI50 [3] of 7 nM.
For `C=CC(=O)N1C[C@@H]2C(=O)N(C)c3c(c4cc(F)c(-c5c(O)cccc5F)c(F)c4n(-c4c(C(C)C)ncnc4C(C)C)c3=O)N2C[C@H]1C` [Compound 20A], the IC50 ([1]; Homo sapiens, NCI-H358, 2 h) was 4 nM, the GI50 ([2]; Homo sapiens, NCI-H358, 72 h) was 4 nM and the GI50 ([3]; Homo sapiens, MIA PaCa-2, 72 h) was 10 nM.
With `C=CC(=O)N1C[C@@H]2C(=O)N(C)c3c(c4cc(F)c(-c5c(O)cccc5F)c(F)c4n(-c4c(C)ccnc4C(C)C)c3=O)N2C[C@H]1C` [Compound 21A-1] the IC50 [1] was 104 nM, the GI50 ([2]; Homo sapiens, NCI-H358, 72 h) was 91 nM and the GI50 ([3]; Homo sapiens, MIA PaCa-2, 72 h) was 156 nM.
With `C=CC(=O)N1C[C@@H]2COc3c(c4cc(Cl)c(-c5c(O)cccc5F)c(F)c4n(-c4c(C)ccnc4C(C)C)c3=O)N2C[C@H]1C` (atropisomer, axis not shown) [Compound 18A-2] the IC50 [1] was 13 nM, the GI50 ([2]; NCI-H358, 72 hours) was 12 nM and the GI50 [3] was 24 nM.
Molecule `C=CC(=O)N1C[C@@H]2C(=O)N(CCN(C)C)c3c(c4cc(Cl)c(-c5c(O)cccc5F)c(F)c4n(-c4c(C)ccnc4C(C)C)c3=O)N2C[C@H]1C` (atropisomer, axis not shown) [Compound 26D] has an IC50 [1] of 68 nM, a GI50 ([2]; NCI-H358, 72 hours) of 82 nM and a GI50 [3] of 79 nM.
With `C=CC(=O)N1C[C@@H]2C(=O)Nc3c(c4cc(F)c(-c5c(O)cccc5F)c(F)c4n(-c4c(C)ccnc4C(C)C)c3=O)N2C[C@H]1C` [Compound 22A-1] the IC50 [1] was 60 nM, the GI50 ([2]; NCI-H358, 72 hours) was 28 nM and the GI50 [3] was 85 nM.
